# Measurements taken from patent US8791138B2, “Compositions and methods for alleviating depression or improving cognition” (Clera Inc., priority 2008, dated 2014).
# Legend:
# [1] = biological target: T1, cloned dopamine D3 receptors (Homo sapiens, UniProt P35462); experiment: Radioligand Kd at cloned dopamine D3 receptors; format: binding
# T1 construct: expressed in transfected cells
# [2] = test system: depressive symptoms in acute exacerbations of schizophrenia; conditions: amisulpride 400-800 mg/day, haloperidol 15-20 mg/day, risperidone 8 mg/day; Peuskens et al. 2002; cited from earlier work
# [3] = test system: duration of immobility in the forced swimming test; conditions: mice, Nakazawa et al. 2003, cited from earlier work
# [4] = test system: dopamine behavioral supersensitivity; experiment: Dopamine behavioral supersensitivity in animals; format: in vivo; conditions: P. Seeman, Unpublished Results
# [5] = test system: depression (Major Depressive Disorder); experiment: Clinical observation of treatment-resistant depression patients, Hamilton Scale for Depression; format: in vivo, human
# Source text: All subjects were patients of a clinic for treatment-resistant depression at a tertiary hospital. Treatment-resistance was defined as a treatment failure on at least two other antidepressants prior to their referral to the clinic. Patients were deemed to be depressed by the referring psychiatrist as well as the treating psychiatrist according to DSM IV Criteria for Major Depressive Disorder.
# The higher the value, the more severe the depression.
# T1 sequence (P35462 whole entry): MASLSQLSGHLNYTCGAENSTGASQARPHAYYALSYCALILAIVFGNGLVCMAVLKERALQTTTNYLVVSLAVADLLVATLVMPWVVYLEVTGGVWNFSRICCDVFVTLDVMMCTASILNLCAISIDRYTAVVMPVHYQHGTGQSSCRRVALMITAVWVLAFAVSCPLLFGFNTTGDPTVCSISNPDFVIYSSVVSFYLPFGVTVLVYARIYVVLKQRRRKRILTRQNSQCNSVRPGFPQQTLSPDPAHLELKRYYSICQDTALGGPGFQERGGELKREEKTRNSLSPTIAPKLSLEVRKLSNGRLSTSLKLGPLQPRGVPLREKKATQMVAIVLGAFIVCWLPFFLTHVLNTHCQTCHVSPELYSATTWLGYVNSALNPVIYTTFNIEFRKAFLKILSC
smiles,measurement,setting,value
CCN1CCC[C@H]1CNC(=O)c1c(O)c(Cl)cc(Cl)c1OC (racemic) [[^3H]raclopride],Kd,[1],1.6 nM
CCN1CCCC1CNC(=O)c1cc(S(=O)(=O)CC)c(N)cc1OC (stereo not shown) [amisulpride],Brief Psychiatric Rating Scale (BPRS) anxiety/depression subscore,[2],5.6±6.1
O=c1cc(-c2ccc(O)cc2)oc2cc(O)cc(O)c12 [apigenin],duration of immobility in the forced swimming test,[3],significantly decreased
CNCCC(Oc1ccc(C(F)(F)F)cc1)c1ccccc1 (stereo not shown) [fluoxetine],dopamine behavioral supersensitivity in animals,[4],cause dopamine behavioral supersensitivity
O=C(CCCN1CCC(O)(c2ccc(Cl)cc2)CC1)c1ccc(F)cc1 [haloperidol],Brief Psychiatric Rating Scale (BPRS) anxiety/depression subscore,[2],4.4±5.5
same,Rating after end of haloperidol (Hamilton depression scale),"[5]; Subject A, 5th week after starting medication, rating before 7-day regimen 14",9 (5th week)
same,Rating after end of haloperidol (Hamilton depression scale),"[5]; Subject B, 5th week after starting medication, rating before 7-day regimen 18",15 (5th week)
same,Rating after end of haloperidol (Hamilton depression scale),"[5]; Subject C, 5th week after starting medication, rating before 7-day regimen 30",12 (5th week)
same,Rating after end of haloperidol (Hamilton depression scale),"[5]; Subject D, 5th week after starting medication, rating before 7-day regimen 40",32 (5th week)
same,Rating after end of haloperidol (Hamilton depression scale),"[5]; Subject E, 4th week after starting medication, rating before 7-day regimen 23",7 (4th week)
same,Rating after end of haloperidol (Hamilton depression scale),"[5]; Subject F, 5th week after starting medication, rating before 7-day regimen 20",4 (5th week)
same,Rating after end of haloperidol (Hamilton depression scale),"[5]; Subject G, 5th week after starting medication, rating before 7-day regimen 24",13 (5th week)
same,severity of the depression after the 7-day treatment regimen,"[5]; all patients, oral 0.2-0.3 mg/day graded for 7 days",decreased
same,effect on apigenin-induced decrease in immobility in the forced swimming test,[3]; haloperidol 0.2 mg/kg,blocked
CN(C)CCCN1c2ccccc2CCc2ccccc21 [imipramine],dopamine behavioral supersensitivity in animals,[4],cause dopamine behavioral supersensitivity
Cc1nc2n(c(=O)c1CCN1CCC(c3noc4cc(F)ccc34)CC1)CCCC2 [risperidone],Brief Psychiatric Rating Scale (BPRS) anxiety/depression subscore,[2],3.7±4.7
